Legend:
primary HSCs [1] = experiment: Oil Red O staining / adipogenesis of HSCs; assay type: cell-based, rat
Method: FIGS. 3A-B illustrate how modulation of Rev-erbα activity can regulate adipogenesis. Primary HSCs were culture-activated for 5 days (A) or 15 days (B). Cells were treated with vehicle, DMSO (open bar), or Rev-erb agonist SR6452 ([…], solid bar). FIG. 3A provides a graph summarizing the amount of PPARγ, SREBP1, and Lep mRNA detected after 5 days of culture.
(§1) Primary rat HSCs were isolated by pronase/collagenase perfusion digestion followed by density gradient centrifugation with Optiprep. Media was replaced every other day to replenish Rev-erb modulator SR6452, which was present at a 10 μM concentration. Cells were treated with MDIR mixture (IBMX, dexamethasone, insulin, rosiglitazone), TGFβ, or DMSO (vehicle). Some experiments were performed with the human HSC cell line, LX-2.
(§2) FIGS. 3A-B illustrates that modulation of Rev-erbα activity can regulate adipogenesis. Primary HSCs were culture-activated for 5 days (A) or 15 days (B). Cells were treated with vehicle (DMSO, open bar), or the Rev-erb modulator SR6452 (10 mM, purple bar) for the days indicated. The medium was changed every 48 hrs. FIG. 3A provides a chart summarizing the amount of PPARγ, SREBP1, and Lep mRNA on day 5.

cirrhotic rats = experiment: Hemodynamic measurements in bile duct-ligated (BDL) rats; assay type: in vivo, rat; conditions: 10 μM/kg femoral vein, one hour
Method: Studies were performed to determine the in vivo efficacy of using SR6452 as a treatment for portal hypertension. Rats underwent bile duct-ligation (˜5 weeks, until ascites developed) to induce fibrosis and thus portal hypertension. Initial hemodynamic measurements were taken prior to addition of the agonist. SR6452 (10 μM/kg body weight) was administered via the femoral vein and measurements taken again one hour after administration. Experiments were performed 5 weeks after male Sprague-Dawley rats underwent bile duct-ligation (BDL), when cirrhosis was fully established and ascites present. SR6452 (10 μM/kg body weight) was administered via the femoral vein and hemodynamic measurements taken one hour after administration. Hemodynamic studies were performed as previously described (J Hepatol 2012 57:1220-1227). Briefly, a laparotomy was performed under anesthesia. A PE-50 catheter was introduced into a small ileocolic vein and advanced to the portal vein for measurement of portal pressure. The left femoral artery and vein were cannulated with PE-50 catheters for measurement of mean arterial pressure, central venous pressure and blood withdrawal. Via the right carotid artery, another PE-50 catheter was advanced into the left ventricle under pulse curve control, for microsphere application. After insertion of all catheters, rats were allowed to stabilize hemodynamically for 30 min. Cardiac output and organ perfusions were measured using the colored microsphere method as described (J Hepatol 2012 57:1220-1227). Briefly, 300,000 systemic (yellow) microspheres (15 μm diameter) were injected in the left ventricle. The mesenteric portal-systemic shunt volume was estimated after injection of 150,000 blue microspheres in an ileocolic vein.

primary rat HSCs [2] = experiment: Cell contraction assay (collagen lattice); assay type: cell-based; conditions: collagen gel, SR6452
Method: Primary rat HSCs (day 9, 2-5×10^6 cells/ml) were embedded in a collagen lattice per manufacturer's instructions. Cells were treated with synthetic Rev-erbα ligand SR6452. Collagen gel size change was imaged using a BioSpectrum Imaging System.
(§3) FIGS. 5A-D illustrate that Rev-erb modulator SR6452 can regulate myofibroblast marker expression and HSC contraction. Primary rat HSCs were cultured from quiescence (day Q) to day 5 (FIG. 5A) or from day 9 to day 12 (FIG. 5B) and treated with Rev-erb modulator SR6452. qRT-PCR was performed for myofibroblast gene expression. Samples were normalized with 18S rRNA. […] HSCs (day 5) were embedded in a collagen gel and treated as indicated for 48 hrs. Gels were then released from plastic surface and contraction monitored after 72 hrs. Materials used were DMSO (vehicle control), SR6452, Rev-erb modulator; and BDM (2,3-Butanedione monoxime), myosin inhibitor.

primary rat HSCs [3] = experiment: qRT-PCR gene expression in culture-activated primary rat HSCs; assay type: cell-based
Method: (§4) A series of experiments were conducted to determine the functional role of Rev-erbα in HSC transdifferentiation. In these experiments, culture-activated primary rat HSCs and human LX-2 cells were used. To determine the effect of Rev-erbα on HSC transdifferentiation and contraction, cells were treated with a specific synthetic modulator, SR6452 (10 μM). mRNA and protein expression were determined by qRT-PCR and Western blot, respectively. Changes in cellular morphology, Rev-erbα expression/localization and αSMA expression were observed by confocal microscopy. Additionally, cell contractility was assessed.
as §1
mRNA expression was normalized to 18S rRNA.
as §2
FIGS. 4A-B illustrate that the Rev-erb modulator SR6452 can suppress/decrease ECM gene expression. Primary rat HSCs were cultured from quiescence (day Q) to day 5 (FIG. 4A) or from day 9 to day 12 (FIG. 4B) and treated with Rev-erb modulator SR6452. qRT-PCR was performed to determine ECM gene expression. DMSO was used as the vehicle control, while SR6452 was used as the Rev-erb modulator.
as §3

primary HSCs [4] = experiment: Immunocytochemistry (αSMA, DAPI) and cellular morphology by confocal microscopy; assay type: cell-based, rat; conditions: HSCs (day 9) treated 72 hrs
Method: as §4
Prior to transfection, culture-activated HSCs (for varying days of activation) were seeded onto glass coverslips. Cells were fixed with 4% paraformaldehyde and stained with anti-αSMA antibody, a marker of HSC activation. Cells were imaged using a Zeiss confocal microscope. The fluorescence indicates Rev-erbα or αSMA expression.
FIGS. 5A-D illustrate that Rev-erb modulator SR6452 can regulate myofibroblast marker expression and HSC contraction. Primary rat HSCs were cultured from quiescence (day Q) to day 5 (FIG. 5A) or from day 9 to day 12 (FIG. 5B) and treated with Rev-erb modulator SR6452. qRT-PCR was performed for myofibroblast gene expression. Samples were normalized with 18S rRNA. […] Gels were then released from plastic surface and contraction monitored after 72 hrs. […]

Rev-erbα = experiment: Western blot of Rev-erbα in HSCs treated with pro- and anti-fibrogenic factors; assay type: cell-based, rat
Method: FIGS. 2A-B illustrate the regulation of Rev-erbα expression by pro- and anti-fibrogenic factors. […] Cells were harvested for protein and Western blots performed to detect Rev-erbα.
as §1
FIG. 2B show results from primary HSCs that were treated with pro-fibrogenic factor TGFβ (5 ng/ml) or myosin inhibitors blebbistatin (Bleb) or BDM (2,3-Butanedione monoxime) for 48 hrs. Cells were harvested for protein and Western blots performed to detect Rev-erbα.

[5] = SR6452 10 μM, day Q to day 5 or day 9 to day 12

Row | Compound | lipid content in activated HSCs (primary HSCs [1]; SR6452 10 μM, primary HSCs) | HSC adipogenesis (primary HSCs [1]; exposure of quiescent HSCs) | portal pressure (PP) after SR6452 (cirrhotic rats; mean, p=0.017) [mmHg] | hepatic-portal vascular resistance after SR6452 (cirrhotic rats; mean, p=0.043) [mmHg/min/100 g/ml] | splanchnic vascular resistance after SR6452 (cirrhotic rats; mean, p=0.048) [mmHg/min/100 g/ml] | reduction in hepatic-portal vascular resistance (cirrhotic rats; vs baseline) [%] | reduction in splanchnic vascular resistance (cirrhotic rats; vs baseline) [%] | HSC contraction (primary rat HSCs [2]) | effects on major regulatory and structural genes controlling myofibroblast contraction (primary rat HSCs [3]; [5]) | expression of key extracellular matrix components, including Type I collagen, fibronectin, and tenascin C (primary rat HSCs [3]; [5]) | expression of major adipogenic factors, notably PPARγ and SREBP1 (primary rat HSCs [3]; SR6452 10 μM, mRNA, day 5) | effect on HSC activation (primary rat HSCs [3]; overall conclusion of the in vitro data) | morphology of treated primary HSCs (primary HSCs [4]) | cytoplasmic Rev-erbα (Rev-erbα; TGFβ 5 ng/ml, 48 hrs) | Rev-erbα protein expression (Rev-erbα; Western blot)
1 | CC(C)(C)OC(=O)CN(Cc1ccc(Cl)cc1)Cc1ccc([N+](=O)[O-])s1 [SR6452] | increased | promoted | 19.1 | 8.8 | 27.5 | 36 | 13.5 | impeded | repressive effects | significantly down-regulated | up-regulated | suppressive effect | slightly rounded/folded cytoplasm with disoriented actin fibers |  | 
2 | TGFβ |  |  |  |  |  |  |  |  |  |  |  |  |  | stabilized | increased
